Measurements published in patent US20250376461A1, “INDAZOLE DERIVATIVES FOR TREATING TRPM3-MEDIATED DISORDERS” (Katholieke Universiteit Leuven, priority 2022, published 2025).
pIC50: −log10 of the molar value.

These molecules were tested against T1, mouse TRPM3α2 (mTRPM3) ion channel (Mus musculus, UniProt J9SQF3) (assay: TRPM3 ion channel driven Ca2+ uptake, Fluo-4 AM assay, mTRPM3alpha2 overexpressing flip-in HEK293 cells stimulated with pregnenolone sulfate (50 μM)). Conditions: mTRPM3 overexpressing HEK293 cells stimulated with pregnenolone sulfate (50 μM), activity ranges A, B, C.
T1 construct: expressed in transfected cells; host or cells: flip-in HEK293
T1 sequence (J9SQF3 1-1709 isoform J9SQF3-12): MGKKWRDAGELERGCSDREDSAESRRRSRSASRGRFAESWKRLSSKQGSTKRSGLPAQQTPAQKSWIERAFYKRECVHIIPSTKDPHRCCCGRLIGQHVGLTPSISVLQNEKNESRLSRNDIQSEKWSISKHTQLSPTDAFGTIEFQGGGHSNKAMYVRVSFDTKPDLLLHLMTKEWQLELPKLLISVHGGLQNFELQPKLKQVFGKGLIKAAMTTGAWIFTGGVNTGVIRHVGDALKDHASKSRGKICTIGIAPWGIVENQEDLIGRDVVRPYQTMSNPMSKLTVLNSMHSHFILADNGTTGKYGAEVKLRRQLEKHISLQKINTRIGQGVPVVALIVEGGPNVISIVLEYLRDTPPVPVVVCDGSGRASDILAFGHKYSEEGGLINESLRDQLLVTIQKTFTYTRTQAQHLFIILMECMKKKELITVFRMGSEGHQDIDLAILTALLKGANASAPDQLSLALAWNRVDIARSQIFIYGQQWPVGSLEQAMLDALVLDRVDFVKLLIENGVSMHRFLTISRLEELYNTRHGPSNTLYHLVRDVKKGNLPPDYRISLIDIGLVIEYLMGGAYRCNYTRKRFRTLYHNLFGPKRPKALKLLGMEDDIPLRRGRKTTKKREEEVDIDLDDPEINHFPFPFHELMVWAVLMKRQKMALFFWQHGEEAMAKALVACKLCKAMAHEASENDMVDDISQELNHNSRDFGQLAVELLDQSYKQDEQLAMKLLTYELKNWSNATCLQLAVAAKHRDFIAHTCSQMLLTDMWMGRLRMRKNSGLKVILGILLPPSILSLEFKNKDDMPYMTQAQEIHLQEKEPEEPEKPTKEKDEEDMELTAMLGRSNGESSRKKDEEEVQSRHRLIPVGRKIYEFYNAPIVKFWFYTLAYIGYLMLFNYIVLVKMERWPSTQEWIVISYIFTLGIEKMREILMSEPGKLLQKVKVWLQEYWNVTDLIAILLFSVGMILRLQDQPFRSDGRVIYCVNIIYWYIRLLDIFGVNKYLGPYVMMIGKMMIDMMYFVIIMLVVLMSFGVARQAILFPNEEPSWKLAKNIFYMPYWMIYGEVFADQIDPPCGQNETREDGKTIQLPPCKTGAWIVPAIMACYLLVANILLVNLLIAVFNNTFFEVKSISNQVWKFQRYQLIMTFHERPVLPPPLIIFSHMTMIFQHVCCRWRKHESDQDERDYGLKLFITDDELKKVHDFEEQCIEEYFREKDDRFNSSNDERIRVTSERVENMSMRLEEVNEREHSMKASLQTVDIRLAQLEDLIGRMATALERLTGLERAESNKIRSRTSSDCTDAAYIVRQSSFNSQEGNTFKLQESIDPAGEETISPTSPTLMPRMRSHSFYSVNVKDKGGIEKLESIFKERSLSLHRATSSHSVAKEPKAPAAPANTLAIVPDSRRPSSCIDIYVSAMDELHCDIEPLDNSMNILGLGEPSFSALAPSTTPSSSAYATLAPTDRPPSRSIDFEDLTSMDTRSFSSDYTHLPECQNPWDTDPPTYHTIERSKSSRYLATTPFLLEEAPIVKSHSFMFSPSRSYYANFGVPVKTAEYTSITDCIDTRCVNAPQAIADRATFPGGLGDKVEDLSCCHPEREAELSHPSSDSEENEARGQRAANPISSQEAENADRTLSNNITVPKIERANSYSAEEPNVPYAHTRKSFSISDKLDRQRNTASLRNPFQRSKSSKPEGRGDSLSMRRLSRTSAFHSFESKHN
Type: cell-based
Description: Monitoring the TRPM3 Ion Channel Driven Ca2+ Uptake.
In order to monitor the inhibition of the mouse TRPM3α2 (mTRPM3) ion channel by the compounds of the invention, a cellular system making use of an mTRPM3alpha2 or hTRPM3 overexpressing cell line (flip-in HEK293) was used. The TRPM3 channel was stimulated/opened with Pregnenolone sulfate (PS) (50 μM) which results in Ca^2+ influx.
For mTRPM3, the intracellular Ca^2+ was measured with a Calcium responsive dye, Fluor-4 AM ester (Invitrogen). Cells were cultured until a confluence of 80-90%, washed with Versene (Invitrogen) and detached from the surface by a short incubation with 0.05% Trypsin (Invitrogen). The trypsination process was stopped by the addition of complete cell culture medium (DMEM, glutamax, 10% FCS, NEAA, Pen-Strep). Cells were collected and resuspended in Krebs buffer without Calcium at RT.
Prior the cell seeding (±2000 cells/well into a black, 384 well plate (Greiner)) the diluted compound was added in the assay plate, together with the PS dissolved in Krebs buffer containing Calcium. […] Directly after cell addition the plates were read on an Envision fluorescence reader (Perkin Elmer) by an Excitation of 485 nm and emission at 535 nm.
Channel inhibition was calculated compared to a non-PS stimulated control versus a condition stimulated with PS (50 μM) with vehicle. The ability of the compounds of the invention to inhibit this activity was determined as: Percentage inhibition=[1−((RFU determined for sample with test compound present−RFU determined for sample with positive control inhibitor) divided by (RFU determined in the presence of vehicle−RFU determined for sample with positive control inhibitor))]*100.
The activities of the Example compounds cpd 001-262 tested are depicted in the table below. All tested compounds show an activity in the Fluo-4 AM assay. The activity ranges A, B and C refer to IC50 values in the Fluo-4 AM assay as follows: “A”: IC50<1 μM; “B”: 1 μM≤IC50≤20 μM and “C”: IC50>20 μM.

Row | SMILES | pIC50
1 | Cc1ccc(COc2ccc3nn(C)c(C(=O)NC4(CO)CCNC4=O)c3c2)cn1 (single isomer, unassigned) [Cpd 169 - En1] | < 4.70
2 | Cc1ccc(COc2ccc3nn(C)c(C(=O)NC4(CO)CCNC4=O)c3c2)cn1 (single isomer, unassigned) [Cpd 169 - En2] | > 6.00
3 | Cc1ncsc1COc1ccc2nn(C)c(C(=O)NC3(C(N)=O)CCOC3)c2c1 (single isomer, unassigned) [Cpd 170 -En1] | 4.70 to 6.00
4 | Cc1ncsc1COc1ccc2nn(C)c(C(=O)NC3(C(N)=O)CCOC3)c2c1 (single isomer, unassigned) [Cpd 170 -En2] | 4.70 to 6.00
5 | Cn1nc2ccc(OCc3ccccc3F)cc2c1C(=O)NC1(CO)CCNC1=O (single isomer, unassigned) [Cpd 171 -En1] | > 6.00
6 | Cn1nc2ccc(OCc3ccccc3F)cc2c1C(=O)NC1(CO)CCNC1=O (single isomer, unassigned) [Cpd 171 -En2] | 4.70 to 6.00
7 | COc1ccc2nn(C)c(C(=O)NC(C)(CO)C(N)=O)c2c1 (single isomer, unassigned) [Cpd 172 - En1] | < 4.70
8 | COc1ccc2nn(C)c(C(=O)NC(C)(CO)C(N)=O)c2c1 (single isomer, unassigned) [Cpd 172 - En2] | 4.70 to 6.00
9 | Cn1nc2ccc(OCC3CCC3)cc2c1C(=O)NC(C)(CO)C(N)=O (single isomer, unassigned) [Cpd 173 - En1] | > 6.00
10 | Cn1nc2ccc(OCC3CCC3)cc2c1C(=O)NC(C)(CO)C(N)=O (single isomer, unassigned) [Cpd 173 - En2] | 4.70 to 6.00
11 | Cc1ccc(COc2ccc3nn(C)c(C(=O)NC(C)(CO)C(N)=O)c3c2)cn1 (single isomer, unassigned) [Cpd 174 - En1] | 4.70 to 6.00
12 | Cc1ccc(COc2ccc3nn(C)c(C(=O)NC(C)(CO)C(N)=O)c3c2)cn1 (single isomer, unassigned) [Cpd 174 - En2] | > 6.00
13 | Cn1nc2ccc(OCc3ccccc3C(F)F)cc2c1C(=O)NC1(C(N)=O)CCOC1 (single isomer, unassigned) [Cpd 175 - En1] | > 6.00
14 | Cn1nc2ccc(OCc3ccccc3C(F)F)cc2c1C(=O)NC1(C(N)=O)CCOC1 (single isomer, unassigned) [Cpd 175 - En2] | 4.70 to 6.00
15 | Cn1nc2ccc(OCc3ccccc3C(F)F)cc2c1C(=O)NC1(CO)CCNC1=O (single isomer, unassigned) [Cpd 176 - En1] | > 6.00
16 | Cn1nc2ccc(OCc3ccccc3C(F)F)cc2c1C(=O)NC1(CO)CCNC1=O (single isomer, unassigned) [Cpd 176 - En2] | 4.70 to 6.00
17 | Cn1nc2ccc(OCc3cccnc3C(F)(F)F)cc2c1C(=O)NC1(CO)CCNC1=O (single isomer, unassigned) [Cpd 177 - En1] | > 6.00
18 | Cn1nc2ccc(OCc3cccnc3C(F)(F)F)cc2c1C(=O)NC1(CO)CCNC1=O (single isomer, unassigned) [Cpd 177 - En2] | 4.70 to 6.00
19 | Cn1nc2ccc(OCc3cccnc3C(F)(F)F)cc2c1C(=O)NC1(C(N)=O)CCOC1 (single isomer, unassigned) [Cpd 178 - En1] | > 6.00
20 | Cn1nc2ccc(OCc3cccnc3C(F)(F)F)cc2c1C(=O)NC1(C(N)=O)CCOC1 (single isomer, unassigned) [Cpd 178 - En2] | > 6.00

Row | SMILES | pIC50
21 | Cc1ncc(COc2ccc3nn(C)c(C(=O)NC(C)(CO)C(N)=O)c3c2)o1 (single isomer, unassigned) [Cpd 179 - En1] | 4.70 to 6.00
22 | Cc1ncc(COc2ccc3nn(C)c(C(=O)NC(C)(CO)C(N)=O)c3c2)o1 (single isomer, unassigned) [Cpd 179 - En2] | > 6.00
23 | Cn1nc2ccc(OCc3cccnc3)cc2c1C(=O)NC1(CO)CCNC1=O (single isomer, unassigned) [Cpd 180 - En1] | > 6.00
24 | Cn1nc2ccc(OCc3cccnc3)cc2c1C(=O)NC1(CO)CCNC1=O (single isomer, unassigned) [Cpd 180 - En2] | 4.70 to 6.00
25 | Cc1ccc(COc2ccc3nn(C)c(C(=O)NC(C)(CO)C(N)=O)c3c2)nc1 (single isomer, unassigned) [Cpd 181 - En1] | < 4.70
26 | Cc1ccc(COc2ccc3nn(C)c(C(=O)NC(C)(CO)C(N)=O)c3c2)nc1 (single isomer, unassigned) [Cpd 181 - En2] | 4.70 to 6.00
27 | Cc1ncsc1COc1ccc2nn(C)c(C(=O)NC(C)(CO)CC(F)F)c2c1 (single isomer, unassigned) [Cpd 182 - En1] | > 6.00
28 | Cc1ncsc1COc1ccc2nn(C)c(C(=O)NC(C)(CO)CC(F)F)c2c1 (single isomer, unassigned) [Cpd 182 - En2] | > 6.00
29 | CNC(=O)C1(NC(=O)c2c3cc(OCc4cccnc4C(F)(F)F)ccc3nn2C)CCOC1 (single isomer, unassigned) [Cpd 183 - En1, 2-methyl-N-[3-(methylcarbamoyl)oxolan-3-yl]-5-{[2-(trifluoromethyl)pyridin-3-yl]methoxy}-2H-indazole-3-carboxamide] | > 6.00
30 | CNC(=O)C1(NC(=O)c2c3cc(OCc4cccnc4C(F)(F)F)ccc3nn2C)CCOC1 (single isomer, unassigned) [Cpd 183 - En2, 2-methyl-N-[3-(methylcarbamoyl)oxolan-3-yl]-5-{[2-(trifluoromethyl)pyridin-3-yl]methoxy}-2H-indazole-3-carboxamide] | 4.70 to 6.00
31 | Cc1ncsc1COc1ccc2nn(C)c(C(=O)NC(C)(CO)C(=O)N(C)C)c2c1 (single isomer, unassigned) [Cpd 184 - En1] | 4.70 to 6.00
32 | Cc1ncsc1COc1ccc2nn(C)c(C(=O)NC(C)(CO)C(=O)N(C)C)c2c1 (single isomer, unassigned) [Cpd 184 - En2] | 4.70 to 6.00
33 | CNC(=O)C(C)(CO)NC(=O)c1c2cc(OCc3scnc3C)ccc2nn1C (single isomer, unassigned) [Cpd 185 - En1, 3-hydroxy-N,2-dimethyl-2-({2-methyl-5-[(4-methyl-1,3-thiazol-5-yl)methoxy]-2H-indazol-3-yl}formamido)propanamide] | 4.70 to 6.00
34 | CNC(=O)C(C)(CO)NC(=O)c1c2cc(OCc3scnc3C)ccc2nn1C (single isomer, unassigned) [Cpd 185 - En2, 3-hydroxy-N,2-dimethyl-2-({2-methyl-5-[(4-methyl-1,3-thiazol-5-yl)methoxy]-2H-indazol-3-yl}formamido)propanamide] | > 6.00
35 | CN(C)C(=O)C1(NC(=O)c2c3cc(OCc4cccnc4C(F)(F)F)ccc3nn2C)CCOC1 (single isomer, unassigned) [Cpd 186 - En1] | 4.70 to 6.00
36 | CN(C)C(=O)C1(NC(=O)c2c3cc(OCc4cccnc4C(F)(F)F)ccc3nn2C)CCOC1 (single isomer, unassigned) [Cpd 186 - En2] | 4.70 to 6.00
37 | Cn1nc2ccc(OCC(F)F)cc2c1C(=O)NC(C)(CO)C(N)=O (single isomer, unassigned) [Cpd 187 - En1] | < 4.70
38 | Cn1nc2ccc(OCC(F)F)cc2c1C(=O)NC(C)(CO)C(N)=O (single isomer, unassigned) [Cpd 187 - En2] | 4.70 to 6.00
39 | CCn1nc2ccc(OCc3ccccn3)cc2c1C(=O)NC(C)(CO)C(N)=O (single isomer, unassigned) [Cpd 188 - En1, 2-({2-ethyl-5-[(pyridin-2-yl)methoxy]-2H-indazol-3-yl}formamido)-3-hydroxy-2-methylpropanamide] | 4.70 to 6.00
